Structures can show the parent of a compound that is named as a salt.
Key:
[1] = system: taenia caecum of guinea pig; assay: Calcium antagonistic effects: relaxation of CaCl2-induced contraction of K+-depolarized taenia caecum; format: cell-based; conditions: Cavia porcellus, relative to maximum relaxation by 10^-4 M papaverine, 10 mM CaCl2, 37° C., read-out: pID50 (pID50 = -log [ID50]), concentration producing 50% relaxation (converted)
Experimental: (1) Calcium antagonistic effects
Then, the preparation was depolarized by a K^+ rich solution (NaCl: 40 mM, KCl: 100 mM). After 10-20 minutes equilibration period, 10 mM of CaCl2 was added to the bathing solution. The contraction was produced, and then the test compound applied cumulatively.

[2] = system: male spontaneously hypertensive rat (SHR); assay: Antihypertensive effects: systolic blood pressure after oral administration to SHR, tail cuff method; format: in vivo; conditions: read-out: Antihypertensive effects, Maximum decrease (%)
Experimental: (2) Antihypertensive effects
After oral administration of the test compound dissolved in a H2 O-PEG 400 solvent mixture (H2 O:PEG 400 (w/w)=1:3) to the male spontaneously hypertensive rat (SHR), the systolic blood pressure was measured by a tail cuff method. Prior to the measurement, rats were warmed at 50° C. for five minutes.

[3] = Acute toxicity test (LD50) in mice; conditions: mouse, in vivo, male ddY mice, after seven days
Experimental: Test 2: Acute toxicity test
ddY mice (.male., 4 weeks old) were divided into groups of five mice and the test compound dissolved in purified water was administered orally (5% solution) or intraperitoneally (1% solution) to the male ddY mice.
After seven days, LD50 values were calculated from the dead […] recorded in the individual dosage groups by the method of Litchfield-Wilcoxon.

EC50 [1] [nM] | SMILES | inhibition in vivo at 20 mg/kg [2] [%] | inhibition in vivo at 10 mg/kg [2] [%] | also measured
29.5 | CC1=C(C(=O)OCCN2CCN(C(c3ccccc3)c3ccccc3)CC2)C(c2cccc([N+](=O)[O-])c2)C(P2(=O)OC(C)CC(C)O2)=C(C)N1 (stereo not drawn) [Hydrochloride of Example 9] | 36 | – | –
5.13 | CC1=C(C(=O)OCCN(C)Cc2ccccc2)C(c2ccccc2Cl)C(P2(=O)OCC(C)(C)CO2)=C(C)N1 (stereo not drawn) [Hydrochloride of Example 19] | – | 30 | –
2.04 | COC(=O)C1=C(C)NC(C)=C(P2(=O)OCCC(C)O2)C1c1ccccc1C(F)(F)F (stereo not drawn) [Hydrochloride of Example 20] | 32 | – | –
57.5 | CC1=C(C(=O)OCCN2CCN(C(c3ccccc3)c3ccccc3)CC2)C(c2ccccc2C(F)(F)F)C(P2(=O)OC(C)CC(C)O2)=C(C)N1 (stereo not drawn) [Hydrochloride of Example 10] | 46 | – | –
4.27 | CC1=C(C(=O)OCCN(C)Cc2ccccc2)C(c2ccccc2C(F)(F)F)C(P2(=O)OCC(C)(C)CO2)=C(C)N1 (stereo not drawn) [Hydrochloride of Example 17] | 42 | – | –
3.24 | CC1=C(C(=O)OCCN(C)Cc2ccccc2)C(c2ccccc2Cl)C(P2(=O)OCCC(C)O2)=C(C)N1 (stereo not drawn) [Hydrochloride of Example 15] | – | 38 | –
2.45 | CC1=C(C(=O)OCCN(C)Cc2ccccc2)C(c2cccc([N+](=O)[O-])c2)C(P2(=O)OC(C)CC(C)O2)=C(C)N1 (stereo not drawn) [Hydrochloride of Example 5] | 50 | – | –
3.02 | CC1=C(C(=O)OCCN(C)Cc2ccccc2)C(c2cccc(Cl)c2)C(P2(=O)OCCC(C)O2)=C(C)N1 (stereo not drawn) [Hydrochloride of Example 14] | – | 14 | –
24.5 | CC1=C(C(=O)OCCN2CCN(C(c3ccccc3)c3ccccc3)CC2)C(c2ccccc2Cl)C(P2(=O)OC(C)CC(C)O2)=C(C)N1 (stereo not drawn) [Hydrochloride of Example 11] | – | 29 | –
4.9 | CC1=C(C(=O)OCCN(C)Cc2ccccc2)C(c2ccccc2Cl)C(P2(=O)OC(C)CCC(C)O2)=C(C)N1 (stereo not drawn) [Hydrochloride of Example 4] | – | 15 | –
12.3 | CC1=C(C(=O)OCCN(C)Cc2ccccc2)C(c2ccccc2C(F)(F)F)C(P2(=O)OCCC(C)O2)=C(C)N1 (stereo not drawn) [Hydrochloride of Example 13] | – | 39 | –
1.91 | COC(=O)C1=C(C)NC(C)=C(P2(=O)OC(C)CC(C)O2)C1c1ccccc1C(F)(F)F (stereo not drawn) [Hydrochloride of Example 21] | 35 | – | –
7.08 | CC1=C(C(=O)OCCN(C)Cc2ccccc2)C(c2cccc([N+](=O)[O-])c2)C(P2(=O)OC(C)CCC(C)O2)=C(C)N1 (stereo not drawn) [Hydrochloride of Example 1] | 50 | – | –
3.98 | CC1=C(C(=O)OCCN(C)Cc2ccccc2)C(c2cccc(Cl)c2)C(P2(=O)OC(C)CCC(C)O2)=C(C)N1 (stereo not drawn) [Hydrochloride of Example 3] | – | 15 | –
2.57 | CC1=C(C(=O)OCCN(C)Cc2ccccc2)C(c2cccc([N+](=O)[O-])c2)C(P2(=O)OCCC(C)O2)=C(C)N1 (stereo not drawn) [Hydrochloride of Example 12] | – | 18 | –
5.89 | CC1=C(C(=O)OCCN(C)Cc2ccccc2)C(c2ccccc2C(F)(F)F)C(P2(=O)OC(C)CCC(C)O2)=C(C)N1 (stereo not drawn) [Hydrochloride of Example 2] | 45 | – | –
3.55 | CC1=C(C(=O)OCCN(C)Cc2ccccc2)C(c2cccc([N+](=O)[O-])c2)C(P2(=O)OCC(C)(C)CO2)=C(C)N1 (stereo not drawn) [Hydrochloride of Example 16] | – | 21 | –
2.82 | CC1=C(C(=O)OCCN(C)Cc2ccccc2)C(c2ccccc2Cl)C(P2(=O)OC(C)CC(C)O2)=C(C)N1 (stereo not drawn) [Hydrochloride of Example 8] | – | 47 | –
275 | COc1ccc([C@@H]2Sc3ccccc3N(CCN(C)C)C(=O)[C@@H]2OC(C)=O)cc1 [Diltiazem, reference compound] | – | – | inhibition in vivo at 60 mg/kg ([2]; dose 60 mg/kg): 10%
4.47 | CC1=C(C(=O)OCCN(C)Cc2ccccc2)C(c2cccc(Cl)c2)C(P2(=O)OCC(C)(C)CO2)=C(C)N1 (stereo not drawn) [Hydrochloride of Example 18] | – | 17 | –

SMILES | EC50 [1] [nM] | inhibition in vivo at 20 mg/kg [2] [%] | inhibition in vivo at 10 mg/kg [2] [%] | also measured
COC(=O)C1=C(C)NC(C)=C(C(=O)OCCN(C)Cc2ccccc2)C1c1cccc([N+](=O)[O-])c1 (stereo not drawn) [Nicardipine, reference compound] | 0.417 | 34 | – | LD50 at 168 h ([3]; ip, i.p. (1% solution)): 166 mg/kg; LD50 at 168 h ([3]; po, p.o. (5% solution)): 561 mg/kg
CC1=C(C(=O)OCCN(C)Cc2ccccc2)C(c2cccc(Cl)c2)C(P2(=O)OC(C)CC(C)O2)=C(C)N1 (stereo not drawn) [Hydrochloride of Example 7] | 5.5 | 49 | – | LD50 at 168 h ([3]; ip, i.p. (1% solution)): 23 mg/kg; LD50 at 168 h ([3]; po, p.o. (5% solution)): 74 mg/kg
COC(=O)C1=C(C)NC(C)=C(C(=O)OC)C1c1ccccc1[N+](=O)[O-] [Nifedipine, reference compound] | 2.88 | – | 26 | –
CC1=C(C(=O)OCCN(C)Cc2ccccc2)C(c2ccccc2C(F)(F)F)C(P2(=O)OC(C)CC(C)O2)=C(C)N1 (stereo not drawn) [Hydrochloride of Example 6] | 4.47 | – | – | inhibition in vivo at 5 mg/kg ([2]; dose 5 mg/kg): 37%; LD50 at 168 h ([3]; ip, i.p. (1% solution)): 17 mg/kg; LD50 at 168 h ([3]; po, p.o. (5% solution)): 53 mg/kg

— patent publication US4576934A, “Antihypertensive dihydropyridine-5-phosphonic acid cyclic esters” (Nissan Chemical Industries Ltd., priority 1983, dated 1986)
